Test results: patent US20210138274A1, “ACCUMULATIVE BORON 10 MEDICINE FOR BORON NEUTRON CAPTURE THERAPY FOR SELECTIVELY OR LOCALLY TARGETING TUMOR TISSUES IN SHORT TIME” (HIROSAKI UNIVERSITY, priority 2018, published 2021)
Entries after “also recorded” stand apart in the source; their conditions may differ. Where no end group is shown, it is not given here. Side-chain parts run from the residue outwards. EMCS = N-(6-maleimidocaproyloxy)succinimide crosslinker

Legend:
[1] = tested on: tumor-bearing mice seeded in the thigh with murine bladder cancer cell strain MBT2; experiment: Neutron irradiation test (tumor volume, hot group vs cold group); format: in vivo; conditions: 7 mg/kg tail vein, neutron irradiation 40 minutes after administration; for effect of reducing the tumor volume, hot group versus cold group: tumor volumes (mm^3) measured for 21 days, FIGS. 5, 6
Protocol: IF7-^10BPA was administered to the tail vein of tumor-bearing mice seeded in the thigh with murine bladder cancer cell strain MBT2 at a dosage amount of 7 mg/kg. Thereafter, tumor volumes (mm^3) thereof were measured for 21 days, with respect to a group (hot group), which was irradiated 40 minutes after the tail-vein administration with neutrons for 30 minutes under the following conditions and a group (cold group), which was not irradiated. In the drawing, * represents p<0.05.
(1) Neutron fluence (cm^−2·s^−1) 2.1E^+12 (2.1×10^12) to 4.6E^+12 (2) Physical dose (Gy) Thermal neutrons: 2.8E^−1 to 6.1E^−1 Epithermal neutrons: 3.0E^−2 to 6.5E^−2 Fast neutrons: 2.1E^−1 to 4.6E^−1 Gamma rays: 2.1E^−1 to 4.6E^−1 Total: 8.9E^−1 to 1.5E^0
Administration was performed in the same manner as in Example 5, except that IF7-^10BSH was administered instead of IF7-^10BPA. Thereafter, tumor volumes (mm^3) were measured for 21 days with respect to the hot group which was irradiated with neutrons 40 minutes after the administration and the cold group which was not irradiated.
IF7-^10BPA was administered to tail vein of the tumor-bearing mice seeded with murine bladder cancer cell strain MBT2 at a dosage amount of 7 mg/kg. Thereafter, tumor volumes (mm^3) were measured for 21 days with respect to a hot group which was irradiated with neutrons 40 minutes after the tail-vein administration and a cold group which was not irradiated.
The administration was performed in the same manner as in Example 7, except that 1BPA was administered instead of IF7-^10BPA, tumor volumes (mm^3) were measured for 21 days with respect to the hot group irradiated 40 minutes after the administration with neutrons and the cold group which was not irradiated.

[2] = tested on: tumor-bearing mice (murine bladder cancer cell MBT2); experiment: Tumor accumulation ability test, Comparative Example 1 (^10B levels in organs, ICP-AES method); format: in vivo; conditions: FIG. 2
Protocol: Additionally, as Comparative Example 1, a tumor accumulation ability test was similarly performed using R-D-fructopyranose, 2′ position of which is esterified with [10B]boronophenylalanine group represented by the formula (a) (hereinafter, simply referred to as “^10BPA-fructose”). 100 μL (2,000 μg) of ^10BPA-fructose whose dosage amount was increased to 100 mg/kg was administered to the tail vein of tumor-bearing mice. ^10B levels (ppm) in the respective organs of the tumor-bearing mice were measured 20, 40, and 60 minutes after the tail-vein administration by ICP-AES method. FIG. 2 is a drawing indicating ^10B levels (ppm) in the organs of the tumor-bearing mice at 20, 40, and 60 minutes after tail-vein administration of 100 μL (2,000 μg) of ^10BPA-fructose.

[3] = tested on: tumor-bearing mice seeded on the thigh with a murine bladder cancer cell MBT2; conditions: mouse, in vivo
Protocol: Tumor accumulation ability was tested in tumor-bearing mice (7 mm in tumor diameter) seeded on the thigh with a murine bladder cancer cell MBT2, with respect to IF7-^10BPA synthesized in Synthesis Example 1 above and IF7-^10BSH synthesized in Synthesis Example 2 above. 100 μL (175 μg) of IF7-^10BPA or IF7-^10BSH adjusted to 7 mg/kg was administered to the tail vein of the tumor-bearing mice. ^10B levels (ppm) in the organs of the tumor-bearing mice were measured 5, 10, and 20 minutes after the tail-vein administration by the PGA-method.
^10B levels in the respective organs of the tumor-bearing mice were measured in the same manner as in Example 1, except that the measurement was performed 40 minutes after the administration in addition to 5, 10 and 20 minutes, the number of n in the respective data was 3 or more, and the measurement results were indicated in violin plots.
^10B levels in the respective organs of the tumor-bearing mice were measured in the same manner as in Example 3, except that instead of IF7-^10BPA, [10B]boronophenylalanine (^10BPA) in the same concentration was administered. The results are indicated in violin plots in FIG. 3B.
^10B levels in the respective organs of the tumor-bearing mice were measured in the same manner as in Comparative Example 2, except that the concentration of ^10BPA was changed from 7 mg/kg to 100 mg/kg. […]

## IF7-^10BSH: peptide IFLLWQRKRR (SEQ ID NO: 3) crosslinked with EMCS between lysine amino group and thiol group of sodium [10B]borocaptate (IFLLWQRK([EMCS-sodium (10B)borocaptate])RR)
[1]
  effect of reducing the tumor volume, hot group versus cold group: effect of reducing the tumor volume was pronounced

## R-D-fructopyranose, 2′ position of which is esterified with [10B]boronophenylalanine group represented by the formula (a) [^10BPA-fructose]
[2]; 100 mg/kg (100 μL, 2,000 μg) tail vein, 20, 40, and 60 minutes after the administration
  accumulation of ^10B in the tumor tissue: did not accumulate at all in the tumor tissue
[2]; 100 mg/kg tail vein, 20, 40, and 60 minutes
  discrimination of the tumor tissue from the other organs (^10B levels): did not significantly discriminate the tumor tissue from the other organs

## IF7-^10BPA: peptide IFLLWQRCRR (SEQ ID NO: 2) crosslinked with EMCS between cysteine thiol and terminal amino group of a ^10B boronophenylalanine compound (IFLLWQRC([EMCS-(10B)boronophenylalanine])RR)
[3]
  ^10B level in the tumor compared with ^10BPA 100 mg/kg (Comparative Example 3): not inferior
[1]; 21 days, FIGS. 6A, 6B
  effect of reducing the tumor volume, hot group IF7-^10BPA (Example 7) versus hot group ^10BPA (Comparative Example 5): effect of reducing the tumor volume was greater
[1]
  effect of reducing the tumor volume, hot group versus cold group: effect of reducing the tumor volume was pronounced; also recorded: more pronounced in the hot group
